What was measured:
[1] = target: T1, Bifunctional 3'-5' exonuclease/ATP-dependent helicase WRN [480-1251] (UniProt Q14191); assay: Biochemical Activity Assays
T1 construct: 480-1251

[2] = target: Bifunctional 3'-5' exonuclease/ATP-dependent helicase WRN (Homo sapiens, UniProt Q14191); assay: ADP-Glo Kinase Assay
Protocol: ATPase activity was measured using the ADP-Glo Kinase Assay following the manufacturers recommended protocol.

Sequence of Bifunctional 3'-5' exonuclease/ATP-dependent helicase WRN (Q14191 whole entry): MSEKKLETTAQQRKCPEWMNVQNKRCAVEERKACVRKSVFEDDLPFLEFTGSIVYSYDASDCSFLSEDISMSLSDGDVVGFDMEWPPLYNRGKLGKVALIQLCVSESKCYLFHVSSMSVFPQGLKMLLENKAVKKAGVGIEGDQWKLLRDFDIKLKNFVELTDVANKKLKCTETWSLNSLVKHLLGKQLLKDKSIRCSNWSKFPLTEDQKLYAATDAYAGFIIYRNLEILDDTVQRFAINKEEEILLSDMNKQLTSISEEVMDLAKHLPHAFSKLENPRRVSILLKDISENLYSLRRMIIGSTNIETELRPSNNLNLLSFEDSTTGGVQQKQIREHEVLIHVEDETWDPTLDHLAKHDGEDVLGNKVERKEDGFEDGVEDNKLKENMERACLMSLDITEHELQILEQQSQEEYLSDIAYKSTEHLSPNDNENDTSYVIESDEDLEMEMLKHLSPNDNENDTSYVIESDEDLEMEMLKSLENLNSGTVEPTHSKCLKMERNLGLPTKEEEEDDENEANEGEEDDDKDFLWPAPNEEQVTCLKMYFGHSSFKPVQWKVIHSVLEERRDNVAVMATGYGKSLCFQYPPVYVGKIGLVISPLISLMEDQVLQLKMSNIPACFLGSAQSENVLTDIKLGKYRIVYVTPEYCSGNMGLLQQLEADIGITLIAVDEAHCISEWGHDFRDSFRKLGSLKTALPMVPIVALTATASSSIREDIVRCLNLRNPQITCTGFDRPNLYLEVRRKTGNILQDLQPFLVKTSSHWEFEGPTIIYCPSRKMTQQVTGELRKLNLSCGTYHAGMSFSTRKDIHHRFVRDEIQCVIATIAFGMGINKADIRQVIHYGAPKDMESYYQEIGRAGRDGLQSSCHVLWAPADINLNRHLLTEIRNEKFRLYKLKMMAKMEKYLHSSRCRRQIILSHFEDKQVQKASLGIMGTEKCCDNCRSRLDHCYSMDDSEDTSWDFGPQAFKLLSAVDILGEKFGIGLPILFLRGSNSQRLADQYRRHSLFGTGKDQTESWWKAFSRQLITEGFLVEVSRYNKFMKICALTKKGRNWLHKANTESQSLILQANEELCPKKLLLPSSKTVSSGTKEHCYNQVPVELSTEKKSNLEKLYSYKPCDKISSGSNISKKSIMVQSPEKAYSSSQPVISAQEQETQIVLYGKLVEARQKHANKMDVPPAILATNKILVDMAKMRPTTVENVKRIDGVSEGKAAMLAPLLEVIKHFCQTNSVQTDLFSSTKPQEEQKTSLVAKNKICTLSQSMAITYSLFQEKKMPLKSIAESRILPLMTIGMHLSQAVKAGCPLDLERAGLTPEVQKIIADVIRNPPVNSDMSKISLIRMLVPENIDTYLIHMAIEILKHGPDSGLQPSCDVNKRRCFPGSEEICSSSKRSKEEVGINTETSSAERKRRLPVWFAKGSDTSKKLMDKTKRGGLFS
T1 sequence (Q14191 480-1251): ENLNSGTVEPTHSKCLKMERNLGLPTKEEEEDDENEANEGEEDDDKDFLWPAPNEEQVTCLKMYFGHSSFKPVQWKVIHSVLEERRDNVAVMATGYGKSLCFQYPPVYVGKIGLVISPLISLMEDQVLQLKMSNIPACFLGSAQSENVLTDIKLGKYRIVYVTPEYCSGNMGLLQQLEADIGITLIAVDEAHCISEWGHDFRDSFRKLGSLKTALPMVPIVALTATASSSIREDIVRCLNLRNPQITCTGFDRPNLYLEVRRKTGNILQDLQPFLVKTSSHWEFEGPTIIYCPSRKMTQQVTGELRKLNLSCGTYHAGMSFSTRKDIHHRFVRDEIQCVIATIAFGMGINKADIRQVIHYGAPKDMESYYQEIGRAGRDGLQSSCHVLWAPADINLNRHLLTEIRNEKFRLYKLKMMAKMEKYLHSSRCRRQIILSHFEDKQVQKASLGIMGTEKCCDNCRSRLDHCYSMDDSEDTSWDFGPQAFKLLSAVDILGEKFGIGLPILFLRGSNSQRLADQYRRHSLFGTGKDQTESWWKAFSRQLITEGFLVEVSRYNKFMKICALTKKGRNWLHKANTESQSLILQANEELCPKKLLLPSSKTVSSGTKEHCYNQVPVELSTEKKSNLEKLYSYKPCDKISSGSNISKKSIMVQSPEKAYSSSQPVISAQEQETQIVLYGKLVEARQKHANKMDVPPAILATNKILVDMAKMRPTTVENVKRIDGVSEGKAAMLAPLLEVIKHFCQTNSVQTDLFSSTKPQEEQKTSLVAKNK

SMILES | IC50 [1] | IC50 [2]
CCc1c(N2CCN(C(=O)c3ncnc(C)c3O)CC2)c(=O)n2nc(-c3cccc4sc(C)nc34)nc2n1CC(=O)Nc1ccc(C(F)(F)F)cc1Cl [WO2025049746, Example 156] | 37 nM | 52 nM
CCc1c(N2CCN(C(=O)c3ncnc(C)c3O)[C@@H]3CC[C@@H]32)c(=O)n2nc(-c3ccc4c(c3)COC4(C)C)nc2n1CC(=O)Nc1ccc(C(F)(F)F)cc1Cl [WO2025049746, Example 459] | 81 nM | 91 nM
CCc1c(N2CCN(C(=O)Cn3cncn3)CC2)c(=O)n2nc(C3=CCOCC3)nc2n1CC(=O)Nc1ccc(C(F)(F)F)cc1Cl [WO2025049746, Example 61] | 66.7 nM | 125 nM
CCc1c(N2CCN(C(=O)c3ncnc(C)c3O)CC2)c(=O)n2nc(-c3cccc4c3CCOC4)nc2n1CC(=O)Nc1c(Cl)cc(C(F)(F)F)c2c1CC2 [WO2025049746, Example 389] | 137 nM | 1170 nM
CCc1c(N2CCN(C(=O)c3ncnc(C)c3O)CC2)c(=O)n2nc(C3=CCOCC3)nc2n1CC(=O)NC12CC(C(F)(F)C(F)(F)F)(C1)C2 [WO2025049746, Example 69] | 141 nM | 235 nM
CCc1c(N2CCN(C(=O)c3cccc4c3ncn4C)CC2)c(=O)n2nc(C3=CCOCC3)nc2n1CC(=O)Nc1ccc(C(F)(F)F)cc1Cl [WO2025049746, Example 44] | 51.7 nM | 83.9 nM
CCc1c(N2CCN(C(=O)c3ccccc3NS(C)(=O)=O)CC2)c(=O)n2nc(C3=CCOCC3)nc2n1CC(=O)Nc1ccc(C(F)(F)F)cc1Cl [WO2025049746, Example 38] | 60.3 nM | 70.8 nM
CCc1c(N2CCN(C(=O)c3ncnc(C)c3O)CC2)c(=O)n2nc(-c3ccc4c(c3)CC(F)(F)C4)nc2n1CC(=O)Nc1ccc(C(F)(F)F)cc1Cl [WO2025049746, Example 224] | 47 nM | 47 nM
CCc1c(N2CCN(C(=O)c3ncnc(C)c3O)CC2)c(=O)n2nc(-c3ccc4c(c3)CCOC4(C)C)nc2n1CC(=O)Nc1ccc(C(F)(F)F)cc1Cl [WO2025049746, Example 195] | 39 nM | 45 nM
CCc1c(N2CCN(C(=O)c3ncnc(C)c3O)CC2)c(=O)n2nc(-c3ccc4scnc4c3)nc2n1CC(=O)Nc1ccc(C(F)(F)F)cc1Cl [WO2025049746, Example 288] | 43 nM | 40 nM
CCc1c(N2CC[C@H](C)N(C(=O)c3ncnc(C)c3O)CC2)c(=O)n2nc(C3=CCOCC3)nc2n1CC(=O)Nc1ccc(C(F)(F)F)cc1Cl [WO2025049746, Example 342] | 420 nM | 1800 nM
CCc1c(N2CCN(C(=O)c3ncnc(C)c3O)CC2)c(=O)n2nc(-c3ccc4c(c3)CC(C)(C)N4C(C)=O)nc2n1CC(=O)Nc1ccc(C(F)(F)F)cc1Cl [WO2025049746, Example 296] | 38 nM | 36 nM
CCc1c(N2CCN(C(=O)c3ncnc(C)c3O)CC2)c(=O)n2nc(-c3cccc4c3COC(C)(C)C4)nc2n1CC(=O)Nc1ccc(C(F)(F)F)cc1Cl [WO2025049746, Example 222] | 45 nM | 40 nM
CCc1c(N2CCN(C(=O)c3cc(N4CCN(C)CC4)nc(C)c3O)CC2)c(=O)n2nc(-c3ccc4c(c3)COC4)nc2n1CC(=O)Nc1ccc(C(F)(F)F)cc1Cl [WO2025049746, Example 450] | 103 nM | 108 nM
Cc1ncnc(C(=O)N2CCN(c3c4n(c5nc(-c6ccc7c(c6)COC7(C)C)nn5c3=O)[C@H](C(=O)Nc3ccc(C(F)(F)F)cc3Cl)C[C@@H]4C)[C@H]3CC[C@@H]32)c1O [WO2025049746, Example 468] | 42.4 nM | 38.1 nM
CCc1c(N2CCN(C(=O)c3ncnc(C)c3O)CC2)c(=O)n2nc(C3=CCOCC3)nc2n1CC(=O)Nc1ccc(C(F)(F)F)c2cccnc12 [WO2025049746, Example 365] | 44 nM | 63 nM
CCc1c(N2CCN(C(=O)c3ncnc(C)c3O)CC2)c(=O)n2nc(-c3ccc4c(c3)CCO4)nc2n1CC(=O)Nc1c(Cl)cc(C(F)(F)F)c2c1CC2 [WO2025049746, Example 383] | 74 nM | 94 nM
CCc1c(N2CCN(C(=O)c3ncnc(C)c3O)CC2)c(=O)n2nc(C3=CCOCC3)nc2n1CC(=O)Nc1ccc(OC(F)F)cc1F [WO2025049746, Example 369] | 77 nM | 85 nM
CCc1c(N2CCN(C(=O)c3ncnc(C)c3O)CC2)c(=O)n2nc(-c3ccc4c(c3)CN(C)C4)nc2n1CC(=O)Nc1ccc(C(F)(F)F)cc1Cl [WO2025049746, Example 197] | 52 nM | 50 nM
CCc1c(N2CCN(C(=O)c3ncnc(C)c3O)CC2)c(=O)n2nc(-c3ccc4c(c3)COC43CN(C)C3)nc2n1CC(=O)Nc1ccc(C(F)(F)F)cc1Cl [WO2025049746, Example 209] | 45 nM | 56 nM
CCc1c(N2CCN(C(=O)c3ncnc(C)c3O)CC2)c(=O)n2nc(C3=CCOCC3)nc2n1CC(=O)NC1CC2(C1)CC(F)(F)C2 [WO2025049746, Example 357] | 5200 nM | 4820 nM
CCc1c(N2CCN(C(=O)c3ccccc3NS(=O)(=O)C3CC3)CC2)c(=O)n2nc(-c3ccc4c(c3)OCO4)nc2n1CC(=O)Nc1ccc(C(F)(F)F)cc1Cl [WO2025049746, Example 87] | 138 nM | 159 nM
CCc1c(N2CCN(C(=O)c3ncnc(C)c3O)CC2)c(=O)n2nc(-c3ccc4c(c3)CO[C@@H]4C)nc2n1CC(=O)Nc1ccc(C(F)(F)F)cc1Cl [WO2025049746, Example 191] | 44 nM | 53 nM

These reach a lower IC50 [1]. Values come first.

IC50 [1] | IC50 [2] | SMILES
29.2 nM | 34.6 nM | CCc1c(N2CCN(C(=O)c3nc4n(c(=O)c3O)CCOC4)CC2)c(=O)n2nc(-c3ccc4c(c3)CCOC4)nc2n1CC(=O)Nc1ccc(C(F)(F)F)cc1Cl [WO2025049746, Example 90]
35 nM | 28 nM | CCc1c(N2CCN(C(=O)c3ncnc(C)c3O)CC2)c(=O)n2nc(-c3ccc4c(c3)CC(=O)N4C)nc2n1CC(=O)Nc1ccc(C(F)(F)F)cc1Cl [WO2025049746, Example 271]
20 nM | 22 nM | CCc1c(N2CCN(C(=O)c3ncnc(C)c3O)CC2)c(=O)n2nc(-c3cc4c(cc3F)O[C@H](C)C4)nc2n1CC(=O)Nc1ccc(C(F)(F)F)cc1Cl [WO2025049746, Example 250]
27.5 nM | 25.5 nM | Cc1ncnc(C(=O)N2CCN(c3c4n(c5nc(-c6ccc7c(c6)COC7(C)C)nn5c3=O)[C@H](C(=O)Nc3ccc(C(F)(F)F)cc3Cl)C[C@H]4C)CC2)c1O [WO2025049746, Example 469]
27 nM | 26 nM | CCc1c(N2CCN(C(=O)c3ncnc(C)c3O)CC2)c(=O)n2nc(-c3ccn4nc(C)cc4c3)nc2n1CC(=O)Nc1ccc(C(F)(F)F)cc1Cl [WO2025049746, Example 247]
25 nM | 31 nM | CCc1c(N2CCN(C(=O)c3ncnc(C)c3O)CC2)c(=O)n2nc(-c3ccc4c(c3)COC4)nc2n1CC(=O)Nc1ccc(SC(F)(F)F)cc1Cl [WO2025049746, Example 409]
30 nM | 52 nM | CCc1c(N2CCN(C(=O)c3ncnc(C)c3O)CC2)c(=O)n2nc(-c3ccc4c(c3)n(C)c(=O)n4C)nc2n1CC(=O)Nc1ccc(C(F)(F)F)cc1Cl [WO2025049746, Example 175]
29 nM | 35 nM | CCc1c(N2CCN(C(=O)c3ncnc(C)c3O)CC2)c(=O)n2nc(-c3ccc4c(c3)COC4)nc2n1CC(=O)Nc1c(Cl)cc(C(F)(F)F)c2c1CC2 [WO2025049746, Example 384]
23.4 nM | 26.6 nM | CCc1c(N2CCN(C(=O)c3ccccc3NS(=O)(=O)C3CC3)CC2)c(=O)n2nc(N3C[C@H]4COC[C@H]4C3)nc2n1CC(=O)Nc1ccc(C(F)(F)F)cc1Cl [WO2025049746, Example 94]
19 nM | 19 nM | CCc1c(N2CCN(C(=O)c3ncnc(C)c3O)CC2)c(=O)n2nc(-c3ccn4cncc4c3)nc2n1CC(=O)Nc1ccc(C(F)(F)F)cc1Cl [WO2025049746, Example 219]
18.8 nM | 26.1 nM | CCc1c(N2CCN(C(=O)c3ncnc(C)c3O)CC2)c(=O)n2nc(C3=CCOCC3)nc2n1CC(=O)Nc1ccc(C(F)(F)C(F)(F)Cl)cc1 [WO2025049746, Example 71]
32 nM | 31 nM | CCc1c(N2CCN(C(=O)c3ncnc(C)c3O)CC2)c(=O)n2nc(-c3ccc4c(c3F)CCOC4)nc2n1CC(=O)Nc1ccc(C(F)(F)F)cc1Cl [WO2025049746, Example 217]
29 nM | 26 nM | CCc1c(N2CCN(C(=O)c3ncnc(C)c3O)CC2)c(=O)n2nc(-c3ccc4c(c3)CS(=O)(=O)N4C)nc2n1CC(=O)Nc1ccc(C(F)(F)F)cc1Cl [WO2025049746, Example 279]
22.4 nM | 24.9 nM | CCc1c(N2CCN(C(=O)c3ncnc(C)c3O)CC2)c(=O)n2nc(-c3cccc4c3OCO4)nc2n1CC(=O)Nc1ccc(C(F)(F)F)cc1Cl [WO2025049746, Example 16]
34.4 nM | 40 nM | CCc1c(N2CCN(C(=O)c3ncnc(C)c3O)CC2)c(=O)n2nc(-c3cccc4c3COC4)nc2n1CC(=O)Nc1ccc(C(F)(F)F)cc1Cl [WO2025049746, Example 15]
33 nM | 45.7 nM | CCc1c(N2CCN(C(=O)c3ccccc3NS(=O)(=O)C3CC3)CC2)c(=O)n2nc(C3=CCOCC3)nc2n1CC(=O)Nc1ccc(C(F)(F)F)cc1Cl [WO2025049746, Example 39]
31 nM | 29 nM | CCc1c(N2CCN(C(=O)c3ncnc(C)c3O)CC2)c(=O)n2nc(-c3ccc4nn(C)c(F)c4c3)nc2n1CC(=O)Nc1ccc(C(F)(F)F)cc1Cl [WO2025049746, Example 290]
25 nM | 30 nM | CCc1c(N2CCN(C(=O)c3ncnc(C)c3O)CC2)c(=O)n2nc(-c3ccc4c(c3)COC4)nc2n1CC(=O)Nc1ccc(C=C(F)F)cc1Cl [WO2025049746, Example 421]
16.3 nM | 20.1 nM | CCc1c(N2CCN(C(=O)c3nccc4nc[nH]c34)CC2)c(=O)n2nc(N3C[C@H]4COC[C@H]4C3)nc2n1CC(=O)Nc1ccc(C(F)(F)F)cc1Cl [WO2025049746, Example 95]

Source: BindingDB's records for patent WO2025049746 (Eikon Therapeutics, 2025)
